Counter-ions that a name gives are not always drawn.
Key:
C57BL/6 male mice [1] = assay: C57BL/6 hair growth after topical dosing; type: in vivo, mouse; details: dosed topically once on shaved lower back; visually graded for melanogenesis and hair regrowth
Method: (§1) A mouse model of male pattern baldness is used to investigate the effectiveness of the present compounds for growing hair. Agonists for the sonic hedgehog pathway that act by binding and activating Smoothened were tested in a formulation of 50:30:20 PG:EtOH:water or 5:95 DMSO:acetone vehicle. C57BL/6 male mice (48-52 days old on arrival) from Charles River Labs were used on the study. The mice were housed and cared for according to established procedures. Food and water were ad libitum. On Day 0, the mice were shaved on their lower back, an area of ˜1.5 inches×˜2 inches with Wahl clippers using a surgical blade. On day −3, the mice were anesthetized with isoflurane, their back was rinsed with a pad of 70% ethanol, a placebo pellet or a DHT pellet (2.5 mg 21 day pellet) were implanted subcutaneously between the shoulder blades with a 10 gauge trochar. DHT pellet transplantation results in maintenance of existing hair follicles in the resting (telogen) phase. The hole was stapled with a sterile autoclip and the mice were returned to their cage after awaking. The mice were dosed topically once and visually graded daily, except weekends, for melanogenesis and hair regrowth of fur in the dosed area (Table 4).

C57BL/6 male mice [2] = assay: DHT-induced alopecia (mouse model of male pattern baldness); type: in vivo; details: DHT pellet (2.5 mg 21 day) implanted subcutaneously; dosed topically once; visually graded for melanogenesis and hair regrowth
Method: as §1
In the absence of treatment with the present compounds, the follicles remain in telogen rather than following the normal time course of the mouse hair cycle.

sonic hedgehog pathway [3] = assay: Human hedgehog reporter assay HEPM-GliLuc (HGL); type: cell-based; details: HepM human embryonic palatal mesenchymal cells, gli-luciferase reporter; read-out: HEPM Avg. EC50
Outline: (§2)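 Stable gli-luciferase reporter lines (mouse TM3; human Daoy and HEPM) switched to 0.5% FBS medium, given compounds at 1-5 μM with or without octyl-modified hedgehog protein (1-5 ng/ml) for 24 hrs. Luminescence read; eleven-point 1:3 dose curves, activation expressed as percentage of plate controls (AMAX).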

sonic hedgehog pathway [4] = assay: Hedgehog reporter assay (gli-luciferase) in TM3 cells; type: cell-based, mouse; details: TM3 mouse Leydig cells, gli-luciferase reporter; read-out: TM3 Avg. EC50
Outline: as §2

sonic hedgehog pathway [5] = assay: Hedgehog reporter assay (gli-luciferase) in S12 cells; type: cell-based; details: S12 mouse embryonic mesenchymal cells, read-out: S12 Avg. EC50
Outline: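 Stable gli-promoter luciferase reporter S12 mouse embryonic mesenchymal cells, switched to 0.5% FBS and treated with compounds (11-point, 1:3 dilutions) with or without octyl-modified hedgehog protein (1-5 ng/ml) for 24 h; luminescence read. AMAX as percent of high control; EC50 for half-maximal activation; >20% AMAX counted active.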

sonic hedgehog pathway [6] = assay: Human hedgehog reporter assay Daoy-GliLuc (DGL); type: cell-based; details: Daoy human medulloblastoma cells, gli-luciferase reporter; read-out: Daoy Avg. EC50
Outline: as §2

SMILES | C57BL/6 Hair Growth (C57BL/6 male mice [1]) | Androgenetic Alopecia (C57BL/6 male mice [2]) | other results
CN[C@H]1CC[C@H](N(Cc2cc(-c3ccc(C(N)=O)cc3)ccc2OC)C(=O)c2sc3c(F)ccc(F)c3c2Cl)CC1 | yes | yes | –
CN[C@H]1CC[C@H](N(Cc2cc(-c3ccnc(C)c3)ccc2OC)C(=O)c2sc3ccccc3c2Cl)CC1 | yes | yes | –
CCOc1ccc(-c2ccc(C)nc2)cc1CN(C(=O)c1sc2ccccc2c1Cl)[C@H]1CC[C@H](NC)CC1 | yes | – | –
CN[C@H]1CC[C@H](N(Cc2cc(-c3ccnc(C(=O)OC)c3)ccc2OC)C(=O)c2sc3c(F)ccc(F)c3c2Cl)CC1 | yes | yes | –
CN[C@H]1CC[C@H](N(Cc2cc(-c3ccccc3)ccc2OC)C(=O)c2sc3ccccc3c2Cl)CC1 | yes | yes | –
CN[C@H]1CC[C@H](N(Cc2cc(-c3ccnc(C(=O)N(C)C)c3)ccc2OC)C(=O)c2sc3c(F)ccc(F)c3c2Cl)CC1 | yes | yes | –
CN[C@H]1CC[C@H](N(Cc2cc(-c3ccnc(C(=O)O)c3)ccc2OC)C(=O)c2sc3c(F)ccc(F)c3c2Cl)CC1 | no | – | –
CCOc1ccc(-c2ccc(C#N)cc2)cc1CN(C(=O)c1sc2ccccc2c1Cl)[C@H]1CC[C@H](NC)CC1 | yes | – | –
CN[C@H]1CC[C@H](N(Cc2cc(-c3cc(C)nc(C)c3)ccc2OC)C(=O)c2sc3ccccc3c2Cl)CC1 | yes | yes | –
CN[C@H]1CC[C@H](N(Cc2cc(-c3ccc(S(C)(=O)=O)cc3)ccc2OC)C(=O)c2sc3ccccc3c2Cl)CC1 | yes | yes | –
CN[C@H]1CC[C@H](N(Cc2cc(-c3ccc(N)nc3)ccc2OC)C(=O)c2sc3cccc(F)c3c2Cl)CC1 [drawing 702] | yes | yes | –
CN[C@H]1CC[C@H](N(Cc2cc(-c3ccncc3)ccc2OC)C(=O)c2sc3ccccc3c2Cl)CC1 | yes | yes | –
CN[C@H]1CC[C@H](N(Cc2cc(-c3ccc(NS(C)(=O)=O)nc3)ccc2OC)C(=O)c2sc3c(F)ccc(F)c3c2Cl)CC1 | yes | – | –
CNC1CCC(N(Cc2cc(-c3ccc(C(=O)N(C)C)cc3)ccc2OC)C(=O)c2sc3c(F)ccc(F)c3c2Cl)CC1 (centres unmarked) [Compound 333, 3-Chloro-4,7-difluoro-benzo[b]thiophene-2-carboxylic acid (4′-dimethylcarbamoyl-4-methoxy-biphenyl-3-ylmethyl)-(4-methylamino-cyclohexyl)-amide hydrochloride] | – | – | EC50 (sonic hedgehog pathway [3]): < 50 nM; EC50 (sonic hedgehog pathway [4]): < 50 nM; EC50 (sonic hedgehog pathway [5]): < 50 nM; EC50 (sonic hedgehog pathway [6]): < 50 nM

Reference: patent US20120245184A1 (Aderans Research Institute, Inc., priority 2006, published 2012)
